Data on three compounds can be found in US11192949B2, “HIV-1 vaccine” (CASE WESTERN RESERVE UNIVERSITY, priority 2013, dated 2021).

Assay [1] has as its system A74 passage control week 21 virus (PC.21). Briefly: Drug susceptibility assay (reverse transcriptase activity) in U87.CD4.CCR5 cells, passage control virus PC.21. In kind it is cell-based, HIV-1. As to the method: (§1) (A) Virus A74 derived from passage control week 21 (PC.21) and MVC treated week 21 (MVC.21) cultures were used to infect U87.CD4.CCR5 cells in the presence of increasing concentrations of MVC. (B) These viruses were also used to infect U87.CD4.CCR5 cells in the presence of maximal inhibitory concentrations (10 μM) of CCR5 antagonists MVC and TAK-779 and fusion inhibitor enfuvirtide (T20). Reverse transcriptase activity was measured 7 days post infection. Percent infection was calculated relative to the no drug control for each virus. Data shown are means of triplicates with error bars representing standard deviations.
(§2) FIG. 15 illustrates a plot showing sensitivity to attachment inhibitor BMS-806. […] Reverse transcriptase activity was measured five days post infection and percent inhibition calculated based on the no drug condition. Data represents means of triplicates with standard deviations.
(§3) U87.CD4.CCR5 cells were plated in 96-well format (1×10^4 cells/well) for 24 hr. Cells were then treated for 2 hr with 5-fold dilutions of MVC (100 μM to 2×10^−6 μM) and then infected at a multiplicity of infection (MOI) of 0.001 infectious units (IU)/cell. All assays were performed in triplicate. After 24 hr, cells were washed in 1×PBS to remove free virus and media containing the appropriate MVC drug dilutions was added. Viral replication was measured daily by radio-labeled reverse transcriptase assay using a Packard beta counter to quantify counts per minute (cpm). Drug sensitivity curves were generated using non-linear regression curve fitting features of GraphPad Prism 5 software.

Assay [2] relates to A74 MVC treated week 21 virus (MVC.21). Briefly: Drug susceptibility assay (reverse transcriptase activity) in U87.CD4.CCR5 cells, MVC selected virus MVC.21. The class given is cell-based, HIV-1. How it is done: as §1, §2, §3
For assay [3], the system named is HIV-1 subtype B primary isolate B6. To be noted: read-out: mean IC50; U87.CD4.CCR5; virus B6. As to the method: as §3
(§4) We assessed “intrinsic” susceptibilities of HIV-1 subtype A, B, and C primary isolates to maraviroc. Multiple cycle drug susceptibility assays were performed in U87.CD4.CCR5 cells in the presence of 5-fold decreasing concentrations of MVC starting at 100 μM.

Assay [4] has as its system HIV-1 subtype C primary isolate C8. The note with it: read-out: mean IC50; U87.CD4.CCR5; virus C8. How it is done:
as §3, §4

The subject of another assay is B6.MVC.21 virus. To be noted: U87.CD4.CCR5. How it is done:
as §3
(§5) Reverse transcriptase (RT) activity was monitored in the cell-free supernatant for each weekly passage and inhibitor concentration increased when RT activity reached 2-fold over background.

The test system of the next assay is B6.PC.21 virus. To be noted: U87.CD4.CCR5. As to the method: as §3, §5
For assay [5], the system named is HIV-1 subtype A primary isolate A74. Briefly: Multiple cycle drug sensitivity assay in PBMC, virus A74. The class given is cell-based.
For assay [6], the system named is A74 passage control week 21 virus (PC.21). In words: Multiple cycle drug sensitivity assay in PBMC, virus PC.21. In kind it is cell-based, HIV-1. As to the method: (§6) U87.CD4.CCR5 cells were obtained through the AIDS Research and Reference Reagent Program, Division of AIDS, NIAID, NIH. U87.CD4.CCR5 cells were maintained in DMEM supplemented with 10% FBS, 100 μg/mL penicillin/streptomycin, 300 μg/mL G418, and 1 μg/mL puromycin (Invitrogen, Carlsbad, Calif.). 293T cells were cultured in DMEM supplemented with 10% FBS and 100 μg/mL penicillin/streptomycin. Peripheral blood mononuclear cells (PBMCs) were obtained from whole blood extracted from a HIV negative donor by Ficoll-Paque centrifugation. PBMC cultures were stimulated with 1 μg/mL phytohemagglutinin (PHA; Gibco, Carlsbad, Calif.) for 48 hrs in RPMI 1640 medium (Gibco) containing 10% FBS and 100 μg/mL penicillin/streptomycin. Cells were maintained thereafter in RPMI 1640 medium with 10% FBS, 100 μg/mL penicillin/streptomycin, and […] interleukin-2 (IL-2; Gibco).
(§7) All assays were performed in triplicate.
(§8) Therefore, multiple cycle drug sensitivity assays were performed in peripheral blood mononuclear cells (PBMC) isolated from an HIV negative donor with PC.21 and MVC.21.

Assay [7] has as its system A74 MVC treated week 21 virus (MVC.21). Briefly: Multiple cycle drug sensitivity assay in PBMC, virus MVC.21. In kind it is cell-based, HIV-1. How it is done: as §6, §7, §8
Assay [8] deals with gp120 chimeric virus clone MVC.21.132 (A74.MVC.21.132). How it is done:
as §3
(§9) Gp120 chimeric viruses were cloned into an NL4-3 backbone from passage control and virus passaged in the presence of MVC escalations using the yeast homologous recombination-gap repair technique. From this point forward, the viruses and clones are referred to as […] (passage control) or MVC (maraviroc selected). 21 (number of passages). 1 (clone number) or PC.21.1 or MVC.21.1. The gp120 regions of the PC.1 (starting virus), PC.21 and MVC.21 viruses were PCR amplified using primers F_gp120 5′-[…]-3′ (SEQ ID NO: 1) and B_gp120 5′-[…]-3′ (SEQ ID NO: 2). Briefly, these gp120 PCR products were then co-transformed with a SacI-linearized pREC_NFL_Δgp120/URA3 into Saccharomyces cerevisiae MYA-906 cells (ATCC). Following homologous recombination, plasmids were extracted from the yeast cells and transformed into electrocompetent Escherichia coli Stbl4 cells (Invitrogen). Individual bacterial colonies were grown and plasmids were extracted using Qiagen miniprep kits. Chimeric pREC_NFL_gp120 plasmids were co-transfected into 293T cells (3×10^4 cells/well) along with the complementing plasmid pCMV_cplt using Fugene 6 reagent (Promega, Madison, Wis.) as described. Heterodiploid virus particles containing one copy of the NFL and cplt HIV-1 RNAs represent approximately half of the virus derived from 293T cell transfections and can be propagated on U87.CD4.CCR5 cells to produce replication competent virus with a complete virus genome. Virus stocks of each clone were titered as described above. The DNA sequences obtained in the course of this work were deposited in the GenBank/EMBL/DDBJ databases under the following accession numbers: env(gp120) (JX993942-JX993981).
For multiple replication cycle drug susceptibility assays, U87.CD4.CCR5 cells were plated as above and pretreated with 5-fold dilutions of MVC (100 μM to 2×10^−6 μM). Cells were infected at an MOI of 0.001 IU/cell with NL4-3/gp120 chimeric virus in quadruplicate. […] Reverse transcriptase activity in supernatant was monitored as previously described on days 4 through 7 post infection.

Assay [9] concerns gp120 chimeric virus clone MVC.21.122.425K. How it is done: as §3
Assay [10] has as its system gp120 chimeric virus clone MVC.21.119. As to the method:
as §3, §9

For assay [11], the system named is gp120 chimeric virus clone MVC.21.122. The note with it: U87.CD4.CCR5. As to the method:
as §3, §9

In assay [12] the test system is gp120 chimeric virus clone MVC.21.123. As to the method:
as §3, §9

Assay [13] has as its system gp120 chimeric virus clone MVC.21.128. How it is done:
as §3, §9

The subject of assay [14] is gp120 chimeric virus clone PC.1.1. How it is done: as §3, §9
The test system of assay [15] is gp120 chimeric virus clone PC.21.109. How it is done: as §3, §9
For assay [16], the system named is gp120 chimeric virus clone PC.21.111. As to the method:
as §3, §9

Assay [17] has as its system subtype B patient-derived MVC resistant virus R3. To be noted: clone R3; multiple cycle conditions. As to the method:
For multiple replication cycle drug susceptibility assays, U87.CD4.CCR5 cells were plated as above and pretreated with 5-fold dilutions of MVC (100 μM to 2×10^−6 μM). Cells were infected at an MOI of 0.001 IU/cell with NL4-3/gp120 chimeric virus in quadruplicate. After 24 hours, viral inoculums were removed and replaced with media containing the appropriate MVC dilutions. Reverse transcriptase activity in supernatant was monitored as previously described on days 4 through 7 post infection.

In assay [18] the test system is A74.MVC.21.132 psuedovirus. How it is done:
(§10) For single replication cycle drug susceptibility assays, U87.CD4.CCR5 cells in 96-well format (1×10^4 cells/well) were pretreated for 2 hours with 10-fold dilutions of MVC (1 μM to 1×10^−7 μM) then infected in triplicate with luciferase encoding psuedovirus. After 48 hours, supernatant was removed and cells were lysed using 50 μL Glo lysis buffer (Promega, Madison, Wis.). Cells were lysed for 20 minutes at room temperature, transferred to white polystyrene 96 well plates, and read with a PerkinElmer VICTOR plate reader using injectors to introduce 50 μL Bright Glo reagent per well (Promega, Madison, Wis.). Luciferase activity was measured as relative light units (RLU).

Assay [19] has as its system subtype B patient-derived MVC resistant virus R3. The note with it: clone R3; single cycle conditions. How it is done: as §10
In assay [20] the test system is HIV-1 subtype A primary isolate A74. To be noted: U87.CD4.CCR5; virus A74.
Assay [21] concerns CC1/85 MVC-resistant virus containing the T316 and V323 V3 loop mutations. To be noted: 1 μM MVC; cited from earlier work.
Where [22] appears, read: highest MVC concentrations (4, 20, 100 μM).

pIC50: −log10 of the molar value. Where two headings read alike, the source gives them in different places.

On to `Cc1ccc(-c2ccc3c(c2)C=C(C(=O)Nc2ccc(C[N+](C)(C)C4CCOCC4)cc2)CCC3)cc1.[Cl-]` [TAK-779], for which the “inhibition of virus replication” value is recorded as “completely blocked” in [1] (10 μM (IC99 inhibitory concentration), PC.21) and “cross resistance” in assay [2] (10 μM (IC99 inhibitory concentration), MVC.21).

Turning to `COc1ccnc2[nH]cc(C(=O)C(=O)N3CCN(C(=O)c4ccccc4)C[C@H]3C)c12` [BMS-806], the inhibition in assay [1] (highest concentrations tested (50 and 5 μM), PC.21) is 46%; in assay [2] (highest concentrations tested (50 and 5 μM), MVC.21), 98%.

In the case of Maraviroc [MVC], the pIC50 in assay [3] was 8.70; in assay [4], 8.70; in assay [1] (virus PC.21) it was 9.00; in assay [2] (virus MVC.21), 6.67; in the assay with B6.MVC.21 virus (B6 week 21 inhibitor treated culture), 7.85; with B6.PC.21 virus (B6 week 21 control culture), 8.10. The pIC50 in assay [5] was 8.30; in [6], 8.30; in [6] (read-out: IC50), 8.22; in [7] it was 6.52; in assay [8] (clone MVC.21.132, U87.CD4.CCR5), 8.06; in [9] (U87.CD4.CCR5) it was 7.48. The negative-log IC50 (pIC50) in assay [10] (U87.CD4.CCR5) is 7.47; in assay [11] it was 9.05; in assay [13] (U87.CD4.CCR5), 7.43; in assay [20] it was 8.00. Besides, the “MPI (maximal percent inhibition)” value in assay [1] (virus PC.21) is 100%; in assay [2] (virus MVC.21, highest drug concentration tested 100 μM), 81%; in the assay on B6.MVC.21 virus (virus B6.MVC.21), 99%; in the assay with B6.PC.21 virus (virus B6.PC.21), 100%; in [20] it was 99%. In addition, the MPI in assay [5] is reported as 100%; in assay [6], 98%; in assay [7], 73%; in assay [8] (clone MVC.21.132), above 95%; in assay [10], above 95%; in assay [12] it was above 95%. The MPI in [13] was above 95%. Besides, the “rightward shift in IC50 compared with MVC sensitive clone A74.PC.21.109” value in assay [8] (A74.MVC.21.132, multiple replication cycle conditions) worked out at 17 fold. For the same compound, the “IC50 fold change relative to input gp120 clone PC.1.1” value in assay [8] (clone MVC.21.132) was determined as 10 fold; in assay [10] it was 40 fold; in assay [12], 11 fold; in assay [13] it was 40 fold. Further, in assay [9], the “shift in IC50 relative to MVC.21.122” value came to 36 fold. Besides, the “inhibition (RT activity)” value in assay [10] (setting [22]) turned out to be 97%; in assay [15] (setting [22]), 99.9%. In addition, the “sensitivity to MVC inhibition” value in assay [14], in assay [15] and in [16] was “sensitive” each time. In addition, the entries for the “maximal percent inhibition (MPI)” value in assay [17] and in [19] were 61% and 56%, respectively. Also, in assay [18], the “resistance in single cycle assay” value is “resistance could not be detected”. In [21], the “level of replication in the presence of drug as compared to the absence of drug” value was 25%.

The inhibition is the drop in the measured response relative to a control, in per cent. The low end stands for a response near the control, the high end for a response far below the control. Usually pIC50 stands for the IC50 on a negative log10 scale, so that one unit is a factor of ten.
